Measured values as given in patent US20090062382A1, “EXTERNAL PREPARATION FOR IMPROVING COITAL FUNCTION” (CARDIOVASCULAR INSTITUTE, LTD., priority 2003, published 2009).

System: penis
Test: Clinical study: penile temperature change by thermography
Assay type: in vivo, human
Details: intra-urethral infusion; FIG. 7
Protocol: Five (5) healthcare workers of 60 to 69 years old having no early-morning erection were subjected to the study. After obtaining verbal informed consent, the study was carried out from May 2001 through February 2003 as described below.
After keeping the subjects at rest with naked from the waist down for 5 minutes at room temperature of 25° C. and humidity of 60%, temperature of a penis, oxygen saturation in a penile sponge body, and hardness of a penis were measured. The measurement was carried out before administration of the preparation as reference and at 1, 3, 6, 12, 24 and 36 hours after administration, and the value of change (changed value±average error) were recorded. When there was no change at 3 hours after administration, the preparation was considered not effective and measurement thereafter was quitted.
Embrocation: 0.5 ml of each preparation was applied all over to a glans and a penis.
The relevant infusion apparatus was inserted into a urethra, and 0.5 ml of the preparation was infused by rotating a cylinder.
Temperature rise reflects increased blood-flow. So, penile temperature was measured by a thermography (Thermo Tracer TH5108, NEC San-ei Instruments, Ltd.). As this instrument can display a measurement site and temperature of the site numerically on a screen, measurements before and after administrations were possible to be performed at the same position. […]

CC#CCC(C)[C@H](O)/C=C/[C@@H]1[C@H]2c3cccc(CCCC(=O)[O-])c3O[C@H]2C[C@H]1O.[Na+] (relative stereo) [beraprost sodium, (+)-(1R*,2R*,3aS*,8bS*)-2,3,3a,8b-tetrahydro-2-hydroxy-1-[(e)-(3S*)-3-hydroxy-4-methyl-1-octene-6-ynyl]-1H-cyclopenta [b]benzofuran-5-butanoic acid sodium salt]
level and duration of temperature increase: low
